Among the test systems are HCC-2998 colon; MCF7 breast; SF-268 CNS; NCI/ADR-RES ovarian; MOLT-4 leukemia; NCI-H226 lung; SF-295 CNS; TK-10 renal; HCT-15 colon; HOP-62 NSCLC.
What all share (experiment): NCI-60 cell line screen, 48 h

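Assay format: 96-well plates, 48-hour exposure. GI50 marks 50% less growth. TGI marks complete inhibition of growth.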

In the case of `Cc1cc(NS(=O)(=O)c2ccc(NC(=O)c3ccc4nc5ccccc5c(Nc5ccc(S(=O)(=O)N=C(N)N)cc5)c4c3)cc2)no1`, the TGI with HCC-2998 colon was found to be 30.8 µM; in the assay on MCF7 breast, 36.4 µM; with SF-268 CNS, 37.3 µM; in the assay with NCI/ADR-RES ovarian, 57.5 µM; in the assay on MOLT-4 leukemia, 40.8 µM; in the assay with NCI-H226 lung, 28.5 µM. In addition, the TGI in the assay on SF-295 CNS turned out to be 38 µM; in the assay on TK-10 renal, 41.4 µM; in the assay with HCT-15 colon, 29.3 µM; in the assay on HOP-62 NSCLC, 35.8 µM.
Consider `CCCC(Sc1nc(N)nc2nc[nH]c12)C(=O)O` (stereo not given), for which the TGI in the assay with HCC-2998 colon was 76.9 µM; in the assay with MCF7 breast, > 100 µM; in the assay on SF-268 CNS, > 100 µM; in the assay on NCI/ADR-RES ovarian, > 100 µM; in the assay with MOLT-4 leukemia, > 100 µM; with NCI-H226 lung, > 100 µM. In addition, the TGI is > 100 µM with SF-295 CNS, 88 µM in the assay with TK-10 renal, > 100 µM with HCT-15 colon and > 100 µM in the assay on HOP-62 NSCLC.
Turning to `CC1(C)C2CCC1(CS(=O)(=O)Nc1ccccc1)C(=O)C2` (stereo not given), the TGI in the assay with HCC-2998 colon, with MCF7 breast, with SF-268 CNS, in the assay on NCI/ADR-RES ovarian, in the assay with MOLT-4 leukemia and with NCI-H226 lung was > 100 µM each time. Besides, the TGI in the assay with SF-295 CNS, in the assay with TK-10 renal, in the assay on HCT-15 colon and with HOP-62 NSCLC was > 100 µM each time.
Consider `CCN1CCN(C(=O)[C@]23CC[C@@H](C)[C@H](C)[C@@H]2C2=CC[C@@H]4[C@@]5(C)C/C(=C/c6cccnc6)C(=O)C(C)(C)[C@@H]5CC[C@@]4(C)[C@]2(C)CC3)CC1`, for which the GI50 is 1.55 µM with HCC-2998 colon; 1.64 µM in the assay with MCF7 breast; 1.77 µM with SF-268 CNS; 1.59 µM with NCI/ADR-RES ovarian; 2.45 µM in the assay with MOLT-4 leukemia; 1.89 µM with NCI-H226 lung. The GI50 in the assay on SF-295 CNS is 1.63 µM; with TK-10 renal it was 2.87 µM; with HCT-15 colon, 1.66 µM; in the assay on HOP-62 NSCLC, 2.43 µM. For the same compound, the TGI in the assay on HCC-2998 colon worked out at 3 µM; in the assay on MCF7 breast, 3.42 µM; in the assay on SF-268 CNS, 4.02 µM; in the assay with NCI/ADR-RES ovarian, 3.32 µM; in the assay on MOLT-4 leukemia, 7.38 µM; with NCI-H226 lung, 4.07 µM. Also, the TGI in the assay on SF-295 CNS came to 3.05 µM; in the assay with TK-10 renal it was 9.4 µM; with HCT-15 colon it was 3.26 µM; in the assay with HOP-62 NSCLC, 5.86 µM.
In the case of `CC(=O)N1N=C(c2c(O)ccc3ccccc23)CC1C(=O)c1ccco1` (stereo not given), the TGI was > 100 µM with HCC-2998 colon; 47.7 µM in the assay with MCF7 breast; > 100 µM in the assay on SF-268 CNS; > 100 µM in the assay with NCI/ADR-RES ovarian; 60.1 µM in the assay on MOLT-4 leukemia; > 100 µM in the assay on NCI-H226 lung. In addition, the TGI with SF-295 CNS, with TK-10 renal, in the assay on HCT-15 colon and in the assay with HOP-62 NSCLC was > 100 µM in each case.
In the case of `O=C1Cc2c(-c3ccc(Cl)cc3)cc(-c3ccccc3)nc2-c2ccccc2N1`, the TGI was 24.2 µM with HCC-2998 colon; > 42.5 µM with MCF7 breast; 48.9 µM in the assay with SF-268 CNS; 26.4 µM in the assay on NCI/ADR-RES ovarian; > 76.5 µM with MOLT-4 leukemia; 44.9 µM in the assay on NCI-H226 lung. Besides, the TGI in the assay on SF-295 CNS is 26.6 µM; in the assay with TK-10 renal, 21.3 µM; in the assay on HCT-15 colon it was > 44.8 µM; in the assay with HOP-62 NSCLC it was 53.3 µM.
Regarding `O=C(O)CC(NC(=O)Nc1ccc([N+](=O)[O-])cc1)C(=O)Nc1ccc([N+](=O)[O-])cc1` (stereo not given), the TGI in the assay on HCC-2998 colon, in the assay on MCF7 breast, in the assay with SF-268 CNS, in the assay on NCI/ADR-RES ovarian, in the assay on MOLT-4 leukemia and with NCI-H226 lung was > 100 µM in each case. Besides, the TGI in the assay on SF-295 CNS, in the assay with TK-10 renal, in the assay with HCT-15 colon and with HOP-62 NSCLC was > 100 µM throughout.
For the compound `CC(=O)NC1(C)CCC(C(C)(C)NC(C)=O)CC1` (stereo not given), the TGI with HCC-2998 colon, in the assay with MCF7 breast, in the assay on SF-268 CNS, in the assay on NCI/ADR-RES ovarian, in the assay on MOLT-4 leukemia and with NCI-H226 lung was > 100 µM throughout. For the same compound, the TGI with SF-295 CNS, in the assay with TK-10 renal, in the assay on HCT-15 colon and with HOP-62 NSCLC was > 100 µM each time.
Consider `COC(c1ccsc1)C(C#N)(C#N)N=Cc1ccsc1` (stereo not given), for which the TGI in the assay on HCC-2998 colon was 34 µM; in the assay on MCF7 breast it was 15.6 µM; with SF-268 CNS, 33.8 µM; in the assay on NCI/ADR-RES ovarian, 53.1 µM; with MOLT-4 leukemia it was 43.3 µM; with NCI-H226 lung, 54.9 µM. Also, the TGI with SF-295 CNS is 34.9 µM; with TK-10 renal, 36.2 µM; in the assay on HCT-15 colon, 25.9 µM; in the assay with HOP-62 NSCLC, 34.8 µM.
For `COc1cc(C2c3cc4c(cc3C(O)C3CCC(=O)N23)OCO4)cc(OC)c1OC` (stereo not given), the TGI in the assay on HCC-2998 colon is > 100 µM; in the assay with MCF7 breast, 81 µM; with SF-268 CNS, > 100 µM; in the assay with NCI/ADR-RES ovarian, > 100 µM; with MOLT-4 leukemia, > 100 µM; in the assay on NCI-H226 lung it was 79.3 µM. Also, the TGI in the assay with SF-295 CNS is 32.6 µM; in the assay on TK-10 renal, > 100 µM; with HCT-15 colon it was > 100 µM; with HOP-62 NSCLC, > 100 µM.
In the case of `Nc1ccc2c(c1)C1Oc3ccccc3CC1CO2` (stereo not given), the TGI in the assay with HCC-2998 colon, in the assay on MCF7 breast, in the assay on SF-268 CNS, with NCI/ADR-RES ovarian, in the assay on MOLT-4 leukemia and with NCI-H226 lung was > 100 µM each time. Moreover, the TGI with SF-295 CNS is > 100 µM; with TK-10 renal, > 100 µM; in the assay on HCT-15 colon, 35.6 µM; with HOP-62 NSCLC, > 100 µM.
For `Cc1cc(S(=O)(=O)Nc2nc3ccsc3c(=O)n2N)c(S)cc1Cl`, the TGI in the assay with HCC-2998 colon was > 100 µM; in the assay with MCF7 breast, > 100 µM; in the assay on SF-268 CNS it was > 100 µM; with NCI/ADR-RES ovarian, > 100 µM; in the assay on MOLT-4 leukemia it was > 100 µM; in the assay on NCI-H226 lung it was 88 µM. The TGI in the assay on SF-295 CNS, in the assay with TK-10 renal, in the assay with HCT-15 colon and in the assay on HOP-62 NSCLC was > 100 µM each time.
